13 compounds from PubChem BioAssay (NCI) can be followed below.

Holding throughout (assay): NCI anticancer screen, dose series, 48 h
Assay [1] deals with OVCAR-8 ovarian.
Assay [2] deals with EKVX NSCLC.
The subject of assay [3] is HCT-116 colon.
The test system of assay [4] is SNB-75 CNS.
The subject of assay [5] is PC-3 prostate.
For assay [6], the system named is IGROV1 ovarian.
Assay [7] relates to HL-60(TB) leukemia.
In assay [8] the test system is NCI-H226 lung.
For assay [9], the system named is COLO 205 colon.
The test system of assay [10] is 786-0 renal.

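Assay format: 96-well plates, 48-hour exposure. TGI: concentration producing complete growth inhibition.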 Bounds are passed on as bounds.

For `O=C(N=c1ccc2nc(=O)[nH]n(O)c-2c1)C(F)(F)F`, the TGI in assay [1], in assay [2], in assay [3], in assay [4], in assay [5] and in assay [6] was > 100 µM each time. Also, the TGI in assay [7], in [8], in assay [9] and in [10] was > 100 µM in each case.
In the case of `COC(=O)c1ccc(C)cc1CC1Cc2ccc(C)cc2C1=O` (stereo not given), the TGI in [1] is 57.5 µM; in assay [2] it was 36.6 µM; in assay [3], 19 µM; in assay [4] it was 43.8 µM; in assay [5] it was 71.8 µM; in assay [6] it was > 100 µM. Besides, the TGI is 10.7 µM in assay [7], 27.2 µM in assay [8], 26.1 µM in assay [9] and 48.5 µM in assay [10].
Regarding `CCOC(=O)C(NC(=O)c1ccccc1)(N1CCN(c2cc3c(cc2F)c(=O)c(C(=O)O)cn3CC)CC1)C(F)(F)F` (stereo not given), the TGI in assay [1] was 47.3 µM; in assay [2] it was 49 µM; in assay [3], > 100 µM; in assay [4], 90 µM; in [5], > 100 µM; in assay [6], > 100 µM. In addition, the TGI in assay [7] was 43 µM; in [8] it was 90.7 µM; in assay [9], 31.1 µM; in [10] it was > 100 µM.
As for `CC(C)=CCc1[nH]c2ccccc2c1C1=C(O)C(=O)C(c2c(CC=C(C)C)[nH]c3ccccc23)=C(O)C1=O`, the TGI in assay [1] was 7.78 µM; in [2], 7.59 µM; in assay [3], 3.78 µM; in assay [4], 4.14 µM; in assay [5], 4.72 µM; in assay [6], 3.45 µM. For the same compound, the TGI in assay [7] was determined as 5.6 µM; in assay [8] it was 4.6 µM; in assay [9], 3.07 µM; in assay [10], 10.2 µM.
For `S=c1[nH]n2c(CCCCCCCCc3nnc4sc(=S)[nH]n34)nnc2s1`, the TGI in [1], in [2], in [3], in assay [4], in [5] and in assay [6] was > 100 µM in each case. Besides, the TGI in [7], in assay [8], in assay [9] and in assay [10] was > 100 µM each time.
As for `CCOC(=O)C(Cc1ccc(OC(=O)OC(C)(C)C)cc1)NC(=O)OC(C)(C)C` (stereo not given), the TGI in assay [1] is > 100 µM; in assay [2], > 100 µM; in assay [3], > 100 µM; in assay [4], 62.6 µM; in assay [5], > 100 µM; in assay [6] it was > 100 µM. For the same compound, the TGI in assay [7] is 80.1 µM; in assay [8], > 100 µM; in assay [9], > 100 µM; in assay [10], > 100 µM.
`COc1ccccc1NC(=O)CC(=O)N1N=C(N2c3ccccc3Sc3ccccc32)CC1c1ccccc1` (stereo not given): the TGI in assay [1], in [2], in assay [3], in assay [4], in assay [5] and in assay [6] was > 100 µM in each case. Further, the TGI in [7], in assay [8], in assay [9] and in assay [10] was > 100 µM in each case.
In the case of `CCCCCCCCCCCC[C@@H](O)[C@H]1CCC([C@H](O)CCCCC(=O)CCCCCCCC2=C[C@H](C)OC2=O)O1` (stereo not given in full), the TGI in assay [1], in [2], in assay [3], in [4], in [5] and in [6] was > 50 µM throughout. The TGI in assay [7] was > 28.8 µM; in assay [8], > 50 µM; in assay [9], > 30 µM; in [10], > 50 µM.
`C=C1C(O)C[C@H](OC(C)=O)[C@]2(C)C1C(OC(C)=O)[C@]1(C(C)(C)O)CC(O)C(C)=C1[C@@H](OC(=O)c1ccccc1)C2OC(C)=O` (stereo not given in full): the TGI in assay [1], in assay [2], in assay [3], in [4], in [5] and in assay [6] was > 10 µM each time. For the same compound, the TGI in [7], in assay [8], in assay [9] and in assay [10] was > 10 µM in each case.
With `CSc1ccn(C2CC(F)C(CO)O2)c(=O)n1` (stereo not given), the TGI in [1], in assay [2], in [3], in [4], in assay [5] and in [6] was > 100 µM throughout. Moreover, the TGI in [7], in assay [8], in assay [9] and in [10] was > 100 µM each time.
Consider `O=c1[nH]cc(Cl)c(=O)[nH]1`, for which the TGI in [1], in [2], in assay [3], in [4], in [5] and in [6] was > 100 µM throughout. Besides, the TGI in assay [7], in [8], in assay [9] and in assay [10] was > 100 µM each time.
As for `Nc1ncn2c(n1)nc1ccccc12`, the TGI in assay [1] is > 100 µM; in [2] it was > 100 µM; in assay [3], > 100 µM; in [4] it was 78.9 µM; in assay [5] it was > 100 µM; in assay [6] it was > 100 µM. The TGI in assay [7], in assay [8], in assay [9] and in [10] was > 100 µM in each case.
For the compound `COc1ccc2c3c([nH]c2c1)CCN(CCCC(=O)c1ccc(F)cc1)C3`, the TGI in assay [1] stood at 29.1 µM; in assay [2] it was 25.8 µM; in assay [3], 25 µM; in [4], 24.8 µM; in assay [5], 25.6 µM; in assay [6] it was 32.7 µM. Also, the TGI in [7] came to 33.2 µM; in assay [8] it was 33.2 µM; in assay [9], 25.5 µM; in assay [10] it was 27.1 µM.
